Reference: patent publication US20130095068A1, “AGENT FOR TREATING HCV INFECTION” (priority 2010, published 2013)

test system: HCV subgenomic replicon (LucNeo#2 replicon cells); assay: Replicon assay, intracellular luciferase activity in LucNeo#2 replicon cells; assay type: cell-based, Hepatitis C virus; conditions: 3.3 μM, 72 hours, percentage of solvent-treated group
From the text: The inhibitory-effect on HCV replication and the cytotoxicity of a compound of formula (I) of the invention were examined by a replicon assay method using different HCV subgenomic replicon cells from Example 1, specifically LucNeo#2 replicon cells. The LucNeo#2 replicon cells are reporter cells created with the same concept as the luc-ubi-neo/ET replicon cells used in Test Example 1, and are utilized for analysis of the RNA replication mechanism of HCV or anti-HCV drug evaluation, but the gene sequence differs from that of luc-ubi-neo/ET replicon cells (Biochem. Biophys. Res. Commun. 343 (2006) 879-884).
(§1) LucNeo#2 replicon cells cultured to confluency were recovered by trypsin treatment, and were spread on a collagen-coated plate at a density of 20,000 cells/mL. The cell culture was conducted in an incubator at 37° C., 5% CO2, with 10% FCS/DMEM (containing mixed solution of penicillin-streptomycin, G418 and a non-essential amino acid). After 24 hours, the cells were rinsed and a compound of formula (I) was added as Test compound to final concentrations of 3.3 μM or 10 μM. At 72 hours after addition of the Test compound, the cells of one plate were rinsed, the cells were lysed with M-PER, and the intracellular luciferase activity was measured using a Promega kit. An Alamar Blue solution was also added to cells cultured under the same conditions, and the cytotoxicity was examined.
(§2) The intracellular luciferase activity and the Alamar Blue signal for cytotoxicity at 72 hours after Test compound addition were shown in Table 3 as a percentage with respect to the solvent-treated group.

Row | Compound | Luciferase activity
1 | COc1cc(/C=C2\CCCN([C@@H](CO)c3ccc(F)cc3)C2=O)ccc1-n1cnc(C)c1 [Test compound C, (E)-1-[(1R)-1-(4-fluorophenyl)-2-hydroxyethyl]-3-[3-methoxy-4-(4-methyl-1H-imidazol-1-yl)benzylidene]piperidin-2-one] | 93.50%

same assay, conditions: 10 μM, 72 hours, percentage of solvent-treated group

Row | Compound | Luciferase activity
2 | COc1cc(/C=C2\CCCN([C@@H](CO)c3ccc(F)cc3)C2=O)ccc1-n1cnc(C)c1 [Test compound C, (E)-1-[(1R)-1-(4-fluorophenyl)-2-hydroxyethyl]-3-[3-methoxy-4-(4-methyl-1H-imidazol-1-yl)benzylidene]piperidin-2-one] | 55.00%

same assay, conditions: LucNeo#2 replicon cells, 3.3 and 10 μM

Row | Compound | HCV replication inhibitory-activity (in words)
3 | COc1cc(/C=C2\CCCN([C@@H](CO)c3ccc(F)cc3)C2=O)ccc1-n1cnc(C)c1 [Test compound C, (E)-1-[(1R)-1-(4-fluorophenyl)-2-hydroxyethyl]-3-[3-methoxy-4-(4-methyl-1H-imidazol-1-yl)benzylidene]piperidin-2-one] | potent HCV replication inhibitory-activity by reducing the luciferase activity in a dose-dependent manner

test system: LucNeo#2 replicon cells; assay: Cytotoxicity, Alamar Blue in LucNeo#2 replicon cells; assay type: cell-based; conditions: 3.3 μM, 72 hours, percentage of solvent-treated group
Description: as §1, §2

Row | Compound | Cytotoxicity (Alamar Blue signal)
4 | COc1cc(/C=C2\CCCN([C@@H](CO)c3ccc(F)cc3)C2=O)ccc1-n1cnc(C)c1 [Test compound C, (E)-1-[(1R)-1-(4-fluorophenyl)-2-hydroxyethyl]-3-[3-methoxy-4-(4-methyl-1H-imidazol-1-yl)benzylidene]piperidin-2-one] | 101.00%

same assay, conditions: 10 μM, 72 hours, percentage of solvent-treated group

Row | Compound | Cytotoxicity (Alamar Blue signal)
5 | COc1cc(/C=C2\CCCN([C@@H](CO)c3ccc(F)cc3)C2=O)ccc1-n1cnc(C)c1 [Test compound C, (E)-1-[(1R)-1-(4-fluorophenyl)-2-hydroxyethyl]-3-[3-methoxy-4-(4-methyl-1H-imidazol-1-yl)benzylidene]piperidin-2-one] | 102.00%

test system: HCV subgenomic replicon (LucNeo#2 replicon cells); assay: HCV replication inhibition in LucNeo#2 replicon cells, luciferase corrected by cell number (Alamar Blue); assay type: cell-based; conditions: Hepatitis C virus, 96 h, read-out: Inhibition (%) at 1 uM
Description: LucNeo#2 replicon cells, which were the HCV subgenomic replicon cells used in Test Example 2, were used to examine HCV replication inhibitory-activity, from which signals were corrected by using cell number.
LucNeo#2 replicon cells cultured to confluency were recovered by trypsin treatment, and were spread on a collagen-coated plate at a density of 1000 cells/well. The cell culture was conducted in an incubator at 37° C., 5% CO2, with 10% FBS/DMEM (containing mixed solution of penicillin-streptomycin and a non-essential amino acid). On the following day or the evening after confirmation of cell adhesion, a compound of formula (I) as the Test compound was added to final concentration of 1.0 to 1.3 μM. At 4 days after the Test compound addition, Alamar Blue diluted 5-fold with PBS(−) was added in an amount of 1/10 for measurement of the fluorescence, to determine the cell count. After the Alamar Blue measurement, the luminescence from intracellular luciferase activity was determined by adding substrate solution in an amount of 5/11 using a Promega kit.
The Alamar Blue activity and luciferase activity were determined by subtracting the values measured for wells without cells. Next, the luciferase activity value×1000 was divided by the value from Alamar Blue measurement, then, the total activity was defined as the value calculated without the Test compound, and the percentages of inhibition by the Test compound was calculated in respect to total activity and listed in Table 4.

Row | Compound | inhibition at 1 µM
6 | COc1cc(/C=C2\CCCN([C@@H](C)c3ccc(F)cc3)C2=O)ccc1-n1cnc(C)c1 [compound 53] | 30.9%

same assay, conditions: Hepatitis C virus, 96 h; 1 uM, 4 days, luciferase activity per Alamar Blue value; read-out: Inhibition (%) at 1 uM

Row | Compound | inhibition at 1 µM
7 | COc1cc(/C=C/C(=O)NCCc2cccc(Cl)c2)ccc1-n1ccnc1 [compound 41] | 71.8%
8 | COc1cc(/C=C/C(=O)N(CCO)Cc2ccccc2)ccc1-n1cc(C)nc1C [compound 49] | 71.6%
9 | COc1ccccc1CNC(=O)/C=C/c1ccc(-n2ccnc2)c(OC)c1 [compound 38] | 63.7%
10 | COc1ccc(CNC(=O)/C=C/c2ccc(-n3ccnc3)c(F)c2)cc1 [compound 40] | 59.4%
11 | O=C(/C=C/c1ccc(-n2ccnc2)c(Cl)c1)NC1CCc2ccccc21 (stereo not shown) [compound 26] | 75.5%
12 | COc1cc(/C=C/C(=O)NC2(c3ccccc3)CC2)ccc1-n1ccnc1 [compound 17] | 87.7%
13 | COc1cc(/C=C/C(=O)N2C[C@H]2c2ccccc2)ccc1-n1cnc(C)c1 [compound 51] | 62.2%
14 | COc1cc(/C=C/C(=O)NC(c2ccccc2)c2ccccc2)ccc1-n1ccnc1 [compound 42] | 75.8%
15 | COc1cc(/C=C\C(=O)NC2CCc3ccccc32)ccc1-n1ccnc1 (stereo not shown) [compound 30] | 66.4%
16 | COc1cc(/C=C/C(=O)NCC2CCCCC2)ccc1-n1ccnc1 [compound 16] | 71.2%
17 | CC(C)Oc1cc(/C=C/C(=O)NC2CCc3ccccc32)ccc1-n1ccnc1 (stereo not shown) [compound 44] | 64.6%
18 | COCc1cn(-c2ccc(/C=C/C(=O)NC3CCc4ccccc43)cc2F)cn1 (stereo not shown) [compound 43] | 55.8%
19 | Cc1ncn(-c2ccc(/C=C/C(=O)NC3CCc4ccccc43)cc2F)c1C (stereo not shown) [compound 35] | 77.2%
20 | COc1cc(/C=C/C(=O)N2CCC3(CC2)OCc2ccccc23)ccc1-n1cc(C)nc1C [compound 50] | 52.3%
21 | COc1cc(/C=C2\CCCN([C@H](C)c3ccc(C#N)s3)C2=O)ccc1-n1cnc(C)c1 [compound 63] | 70.7%
22 | COc1cc(/C=C2\NC(=O)N(Cc3ccccc3)C2=O)ccc1-n1cnc(C)c1 [compound 59] | 51.9%
23 | COc1cc(/C=C/C(=O)NC(Cc2ccccc2)c2ccccc2)ccc1-n1ccnc1 (stereo not shown) [compound 23] | 71.6%
24 | C/C(=C\C(=O)NC1CCc2ccccc21)c1ccc(-n2ccnc2)c(F)c1 (stereo not shown) [compound 64] | 78%
25 | COc1cc(/C=C/C(=O)NC2CCCc3ccccc32)ccc1-n1ccnc1 (stereo not shown) [compound 33] | 86.8%
26 | COc1cc(/C=C/C(=O)NCc2ccccc2)ccc1-n1ccnc1 [compound 28] | 70.5%
27 | COc1cc(/C=C2\NC(=S)N(Cc3ccccc3)C2=O)ccc1-n1cnc(C)c1 [compound 62] | 68.2%
28 | CCC(NC(=O)/C=C/c1ccc(-n2cnc(C)c2)c(OC)c1)c1cccnc1 (stereo not shown) [compound 36] | 75.7%
29 | COc1cc(/C=C2\CC[C@H]3COC[C@@H](c4cc(F)c(F)c(F)c4)N3C2=O)ccc1-n1cnc(C)c1 [compound 55] | 66.8%
30 | COc1cc(/C=C2/C[C@H]3CCC[C@H](c4ccc(F)c(F)c4)N3C2=O)ccc1-n1cnc(C)c1 [compound 60] | 50.5%
31 | COc1cc(/C=C/C(=O)NCc2ccccc2C(F)(F)F)ccc1-n1ccnc1 [compound 37] | 77.1%

Row | Compound | inhibition at 1 µM
32 | COc1cc(/C(F)=C(/C)C(=O)NC2CCc3ccccc32)ccc1-n1cnc(C)c1 (stereo not shown) [compound 61] | 50.5%
33 | COc1cc(/C=C/C(=O)N(C)Cc2ccccc2)ccc1-n1ccnc1 [compound 22] | 66.3%
34 | COc1cc(C#CC(=O)NC(C)c2ccccc2)ccc1-n1cnc(C)c1 (stereo not shown) [compound 58] | 64.6%
35 | Cc1cncn1-c1ccc(/C=C/C(=O)NC2CCc3ccccc32)cc1C#N (stereo not shown) [compound 25] | 83.5%
36 | COCc1cc(/C=C/C(=O)NC2CCc3ccccc32)ccc1-n1ccnc1 (stereo not shown) [compound 46] | 86.4%
37 | COc1cc(/C=C/C(=O)N2CCC(n3c(=O)[nH]c4ccccc43)CC2)ccc1-n1ccnc1 [compound 52] | 51.4%
38 | COc1cc(/C=C/C(=O)NCc2ccc(C(F)(F)F)cc2)ccc1-n1ccnc1 [compound 39] | 53.2%
39 | COc1cc(/C=C/C(=O)NC2CCc3ccccc32)ccc1-n1cncc1Cl (stereo not shown) [compound 32] | 71.8%
40 | Cc1cc(/C=C/C(=O)NC2CCc3ccccc32)ccc1-n1ccnc1 (stereo not shown) [compound 31] | 71%
41 | COc1cc(/C=C/C(=O)NCCc2ccc(Cl)cc2)ccc1-n1ccnc1 [compound 48] | 61.3%
42 | Cc1cn(-c2ccc(/C=C/C(=O)NC3CCc4ccccc43)cc2Br)cn1 (stereo not shown) [compound 18] | 75.3%
43 | COc1cc(/C=C2\CCCN([C@@H](CO)c3ccc(F)cc3)C2=O)ccc1-n1cnc(C)c1 [compound 54] | 14.2%
44 | CC(=O)c1cc(/C=C/C(=O)NC2CCc3ccccc32)ccc1-n1ccnc1 (stereo not shown) [compound 21] | 81.9%
45 | O=C(/C=C/c1ccc(-n2ccnc2)c(C(F)(F)F)c1)NC1CCc2ccccc21 (stereo not shown) [compound 20] | 76.7%
46 | Cc1cn(-c2ccc(/C=C/C(=O)NC3CCc4ccccc43)cc2OC2CCCC2)cn1 (stereo not shown) [compound 47] | 63.8%
47 | COc1cc(/C=C/C(=O)NCc2ccc(Cl)cc2)ccc1-n1ccnc1 [compound 13] | 65.9%
48 | COc1cc(/C=C2\CCN([C@@H](C)c3ccc(F)cc3)C2=O)ccc1-n1cnc(C)c1 [compound 56] | 65.8%
49 | COc1cc(/C=C/C(=O)NNCc2ccccc2)ccc1-n1ccnc1 [compound 45] | 68.8%
50 | COc1cc(/C=C/C(=O)NCc2cccc(F)c2)ccc1-n1ccnc1 [compound 29] | 62.8%
51 | Cc1cn(-c2ccc(/C=C/C(=O)NC3CCc4ccccc43)cc2Cl)cn1 (stereo not shown) [compound 19] | 75.4%
52 | COc1cc(/C=C/C(=O)NC2Cc3ccccc3C2)ccc1-n1ccnc1 [compound 27] | 69%
53 | O=Cc1cc(/C=C/C(=O)NC2CCc3ccccc32)ccc1-n1ccnc1 (stereo not shown) [compound 15] | 73.3%
54 | CS(=O)(=O)c1cc(/C=C/C(=O)NC2CCc3ccccc32)ccc1-n1ccnc1 (stereo not shown) [compound 34] | 70.2%
55 | CC(O)c1cc(/C=C/C(=O)NC2CCc3ccccc32)ccc1-n1ccnc1 (stereo not shown) [compound 14] | 73.4%
